Results on 46 compounds are retold here after US20110306597A1, “Nicotinamide Derivatives” (priority 2008, published 2011).

Chain of human recombinant H-PGDS (O60760 whole entry): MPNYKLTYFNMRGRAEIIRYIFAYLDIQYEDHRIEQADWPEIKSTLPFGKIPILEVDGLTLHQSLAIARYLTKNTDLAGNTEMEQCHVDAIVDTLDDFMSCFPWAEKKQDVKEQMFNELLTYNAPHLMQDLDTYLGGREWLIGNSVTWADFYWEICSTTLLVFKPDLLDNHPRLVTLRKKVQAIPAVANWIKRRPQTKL

The target in this experiment is human recombinant H-PGDS (Homo sapiens, UniProt O60760). Kind of experiment: Fluorescence Intensity h-PGDS TBA Enzyme Assay. Type of experiment: biochemical. The conditions noted are these: 1:175,000 human recombinant H-PGDS, highest inhibitor concentration typically 1 μM. In a few lines:
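Readout is PGH2 depletion: after a 42 s reaction with 5.0 μM PGH2 and 2.5 mM glutathione (pH 8.0 Tris, 10 min inhibitor preincubation), Fe(II) converts leftover PGH2 to MDA, which forms a fluorescent TBA complex. IC50s come from 11-point, 3-fold duplicate curves, 4-parameter fit.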
Usually IC50 stands for the midpoint of a concentration-inhibition curve. With `COc1cccc(-c2ccc(C(=O)NC(=O)CC(N)c3ccc(OC)c(OC)c3)cn2)c1` (stereo not shown) [Example 277, N-[3-Amino-3-(3,4-dimethoxyphenyl)propanoyl]-6-(3-methoxyphenyl) nicotinamide], the IC50 turned out to be 0.274 µM. To `CC(C)N1CCN(CCCNC(=O)c2ccc(-c3cccc(F)c3)nc2)C(=O)C1=O` [Example 106, 6-(3-Fluorophenyl)-N-[3-(4-isopropyl-2,3-dioxopiperazin-1-yl)propyl]nicotinamide] belongs 0.0343 µM; to `O=C(NCCc1ccncc1)c1ccc(-c2ccccc2)nc1` [Example 356, 6-Phenyl-N-(2-pyridin-4-ylethyl)nicotinamide], 0.0116 µM; to `COC(=O)CNC(=O)[C@H](C)NC(=O)c1ccc(-c2cccc(OC)c2)nc1` [Example 309, Methyl N-{[6-(3-methoxyphenyl)pyridin-3-yl]carbonyl}-L-alanylglycinate], 0.557 µM.

As for `Cc1cc(Br)ccc1NC(=O)c1ccc(-c2ccccc2)nc1` [Example 398, N-(4-Bromo-2-methylphenyl)-6-phenylnicotinamide], the half-inhibitory concentration (IC50) was 0.0033 µM.

`O=C(NC[C@H]1COc2ccccc2C1)c1ccc(-c2cccc(F)c2)nc1` [Example 573]: the IC50 was 0.00324 µM. To `CC(C)[C@H](N)C(=O)NC(=O)c1ccc(-c2cccc(F)c2)nc1` [Example 526, 6-(3-Fluorophenyl)-N-L-valylnicotinamide] belongs 1.51 µM; to `CC(NC(=O)c1ccc(-c2ccc(F)cc2)nc1)c1ccccc1` (stereo not shown) [Example 265, 6-(4-Fluorophenyl)-N-(1-phenylethyl)nicotinamide], 0.152 µM; to `COc1cccc(-c2ccc(C(=O)NCCN3CCCCC3=O)cn2)c1` [Example 271, 6-(3-Methoxyphenyl)-N-[2-(2-oxopiperidin-1-yl)ethyl]nicotinamide], 0.219 µM. In the case of `COc1cccc(-c2ccc(C(=O)NC3CCOCC3)cn2)c1` [Example 305, 6-(3-Methoxyphenyl)-N-(tetrahydro-2H-pyran-4-yl)nicotinamide], the half-inhibitory concentration (IC50) is 0.0387 µM. On to `CNS(=O)(=O)c1ccc(CNC(=O)c2ccc(-c3cccc(C)c3)nc2)cc1` [Example 218, N-{4-[(Methylamino)sulfonyl]benzyl}-6-(3-methylphenyl)nicotinamide], for which the IC50 was determined as 0.0276 µM.

As for `Cc1cccc(-c2ccc(C(=O)NCc3ccccc3C)cn2)c1` [Example 226, N-(2-Methylbenzyl)-6-(3-methylphenyl)nicotinamide], the concentration for half-maximal inhibition (IC50) was 0.0124 µM.

Regarding `Cc1cccnc1CC(C)NC(=O)c1ccc(-c2cccc(F)c2)nc1` (stereo not shown) [Example 3, 6-(3-Fluorophenyl)-N-[1-methyl-2-(3-methylpyridin-2-yl)ethyl]nicotinamide], the IC50 was found to be 0.00289 µM. As for `O=C(NCC1CCCCO1)c1ccc(-c2ccc(F)cc2)nc1` (stereo not shown) [Example 498, 6-(4-Fluorophenyl)-N-(tetrahydro-2H-pyran-2-ylmethyl)nicotinamide], the IC50 is not below 1 µM. With `O=C(NCCSCCO)c1ccc(-c2cccc(F)c2)nc1` [Example 440, 6-(3-Fluorophenyl)-N-{2-[(2-hydroxyethyl)thio]ethyl} nicotinamide], the IC50 amounted to 0.0144 µM. To `O=C(NCCC1CCC(=O)N1Cc1ccccc1)c1ccc(-c2cccc(F)c2)nc1` (stereo not shown) [Example 58, N-[2-(1-Benzyl-5-oxopyrrolidin-2-yl)ethyl]-6-(3-fluorophenyl)nicotinamide] belongs 0.00946 µM. For the compound `COc1ccc(CNC(=O)c2ccc(-c3cccc(F)c3)nc2)cc1` [Example 414, 6-(3-Fluorophenyl)-N-(4-methoxybenzyl)nicotinamide], the IC50 was found to be 0.0353 µM. Take `CCOC(=O)CCCNC(=O)c1ccc(-c2cccc(OC)c2)nc1` [Example 301, Ethyl 4-({[6-(3-methoxyphenyl)pyridin-3-yl]carbonyl}amino)butanoate]: the IC50 came out at 0.0499 µM. In the case of `CS(=O)(=O)Cc1noc(CNC(=O)c2ccc(-c3cccc(F)c3)nc2)n1` [Example 167, 6-(3-Fluorophenyl)-N-({3-[(methylsulfonyl)methyl]-1,2,4-oxadiazol-5-yl}methyl)nicotinamide], the concentration for half-maximal inhibition (IC50) was found to be 0.285 µM. To `O=C(NCC1CCCCO1)c1ccc(-c2ccccc2)nc1` (stereo not shown) [Example 399, 6-Phenyl-N-(tetrahydro-2H-pyran-2-ylmethyl) nicotinamide] belongs 0.0276 µM; to “N-[2-(Benzyloxy)ethyl]-5-chloro-6-(3-fluorophenyl)nicotinamide [Example 555]”, 0.174 µM. To `O=C(NC1CCN(Cc2ccc(Cl)c(Cl)c2)C1=O)c1ccc(-c2ccc(F)cc2)nc1` (stereo not shown) [Example 479, N-[1-(3,4-Dichlorobenzyl)-2-oxopyrrolidin-3-yl]-6-(4-fluorophenyl)nicotinamide] belongs 0.896 µM; to `C=CCNC(=O)c1ccc(-c2cccc(F)c2)nc1` [Example 135, N-Allyl-6-(3-fluorophenyl)nicotinamide], 0.0465 µM. As for `Cc1ncsc1CCNC(=O)c1ccc(-c2cccc(F)c2)nc1` [Example 132, 6-(3-Fluorophenyl)-N-[2-(4-methyl-1,3-thiazol-5-yl)ethyl]nicotinamide], the figure is 0.00636 µM; as for `COc1cccc([C@H](C)NC(=O)c2ccc(-c3cccc(F)c3)nc2)c1` [Example 436, 6-(3-Fluorophenyl)-N-[(1S)-1-(3-methoxyphenyl)ethyl] nicotinamide], 0.00612 µM. Regarding `COC(=O)CNC(=O)c1ccc(-c2ccc(F)cc2)nc1` [Example 500, Methyl N-{[6-(4-fluorophenyl)pyridin-3-yl]carbonyl}glycinate], the half-maximal inhibitory concentration (IC50) is not below 1 µM. On to `O=C(NC[C@@H]1CCCN2CCCC[C@H]12)c1ccc(-c2cccc(F)c2)nc1` [Example 73, 6-(3-Fluorophenyl)-N-[(1S,9aR)-octahydro-2H-quinolizin-1-ylmethyl]nicotinamide], for which the IC50 came to 0.0929 µM. Regarding `Cc1cccc(-c2ccc(C(=O)NCc3ccc(F)cc3)cn2)c1` [Example 314, N-(4-Fluorobenzyl)-6-(3-methylphenyl)nicotinamide], the IC50 turned out to be 0.0795 µM. As for `COc1cccc(-c2ccc(C(=O)NCc3ccc(S(N)(=O)=O)cc3)cn2)c1` [Example 481, N-[4-(Aminosulfonyl)benzyl]-6-(3-methoxyphenyl) nicotinamide], the figure is 0.365 µM; as for `O=C(NCc1nc(-c2ccccc2)no1)c1ccc(-c2cccc(F)c2)nc1` [Example 133, 6-(3-Fluorophenyl)-N-[(3-phenyl-1,2,4-oxadiazol-5-yl)methyl]nicotinamide], 0.0592 µM; as for `O=C(NCc1ccc(Cl)cc1)c1ccc(-c2ccc(F)cc2)nc1` [Example 462, N-(4-Chlorobenzyl)-6-(4-fluorophenyl)nicotinamide], not below 1 µM. On to `Cc1cccc(-c2ccc(C(=O)NCC(=O)N(C)C)cn2)c1` [Example 244, N-[2-(Dimethylamino)-2-oxoethyl]-6-(3-methylphenyl)nicotinamide], for which the IC50 worked out at 0.23 µM.

For the compound `Cc1ccccc1CNC(=O)c1ccc(-c2ccc(F)cc2)nc1` [Example 491, 6-(4-Fluorophenyl)-N-(2-methylbenzyl)nicotinamide], the IC50 was determined as 0.139 µM. `O=C(NCc1ccccc1)c1ccc(-c2cccc(F)c2)nc1` [Example 432, N-Benzyl-6-(3-fluorophenyl)nicotinamide]: the 50% inhibitory concentration (IC50) is 0.0149 µM. `COc1ccc(C(N)CC(=O)NC(=O)c2ccc(-c3cccc(F)c3)nc2)cc1OC` (stereo not shown) [Example 196, N-[3-Amino-3-(3,4-dimethoxyphenyl)propanoyl]-6-(3-fluorophenyl)nicotinamide]: the IC50 was 0.0124 µM. `CC(NC(=O)c1ccc(-c2ccccc2)nc1)c1ccccc1` (stereo not shown) [Example 516, 6-Phenyl-N-(1-phenylethyl)nicotinamide]: the IC50 worked out at 0.0319 µM.

Consider `CCCCNC(=O)c1ccc(-c2ccc(F)cc2)nc1` [Example 326, N-Butyl-6-(4-fluorophenyl)nicotinamide], for which the IC50 worked out at 0.414 µM. Turning to `O=C(NCc1nncn1C1CCCCC1)c1ccc(-c2cccc(F)c2)nc1` [Example 99, N-[(4-Cyclohexyl-4H-1,2,4-triazol-3-yl)methyl]-6-(3-fluorophenyl)nicotinamide], the half-inhibitory concentration (IC50) worked out at 0.0315 µM.

For the compound `COc1cc(F)cc(-c2ccc(C(=O)NCc3ccc(OC)c(OC)c3)cn2)c1` [Example 556, N-(3,4-Dimethoxybenzyl)-6-(3-fluoro-5-methoxyphenyl)nicotinamide], the IC50 came out at 0.09 µM. Turning to `O=C(NCCNc1ccccc1)c1ccc(-c2cccc(F)c2)nc1` [Example 429, N-(2-Anilinoethyl)-6-(3-fluorophenyl)nicotinamide], the IC50 was 0.0218 µM. On to `O=C(NCCN1CCCC1)c1ccc(-c2cccc(F)c2)nc1` [Example 422, 6-(3-Fluorophenyl)-N-(2-pyrrolidin-1-ylethyl)nicotinamide], for which the IC50 is 0.159 µM. On to `O=C(NCC1CCCN(c2ncccn2)C1)c1ccc(-c2cccc(F)c2)nc1` (stereo not shown) [Example 101, 6-(3-Fluorophenyl)-N-[(1-pyrimidin-2-ylpiperidin-3-yl)methyl]nicotinamide], for which the IC50 was 0.0174 µM. With `Cc1noc(CCNC(=O)c2ccc(-c3cccc(F)c3)nc2)n1` [Example 181, 6-(3-Fluorophenyl)-N-[2-(3-methyl-1,2,4-oxadiazol-5-yl)ethyl]nicotinamide], the IC50 was 0.0446 µM. Take `CCCCCNC(=O)c1ccc(-c2cccc(F)c2)nc1` [Example 427, 6-(3-Fluorophenyl)-N-pentylnicotinamide]: the IC50 is 0.0438 µM. On to `Cc1cccc(-c2ccc(C(=O)NCCN3CCN(Cc4ccccc4)CC3)cn2)c1` [Example 249, N-[2-(4-Benzylpiperazin-1-yl)ethyl]-6-(3-methylphenyl)nicotinamide], for which the IC50 was 0.0298 µM. `O=C(NCc1ccc(Cl)cc1)c1ccc(-c2ccccc2)nc1` [Example 517, N-(4-Chlorobenzyl)-6-phenylnicotinamide]: the IC50 stood at 0.0118 µM.
